From patent US20240400564A1 (Syndax Pharmaceuticals, Inc, priority 2021, published 2024)

Legend:
[1] = target: T1, human Menin and N-terminal portion of human MLL (amino acids 4-43) (Homo sapiens, UniProt O00255); test: Menin-MLL competition assay (HTRF); format: binding; conditions: 1 hr incubation
T1 construct: H-FL-Menin diluted to 4 nM in assay buffer
T1 sequence (O00255 1-610): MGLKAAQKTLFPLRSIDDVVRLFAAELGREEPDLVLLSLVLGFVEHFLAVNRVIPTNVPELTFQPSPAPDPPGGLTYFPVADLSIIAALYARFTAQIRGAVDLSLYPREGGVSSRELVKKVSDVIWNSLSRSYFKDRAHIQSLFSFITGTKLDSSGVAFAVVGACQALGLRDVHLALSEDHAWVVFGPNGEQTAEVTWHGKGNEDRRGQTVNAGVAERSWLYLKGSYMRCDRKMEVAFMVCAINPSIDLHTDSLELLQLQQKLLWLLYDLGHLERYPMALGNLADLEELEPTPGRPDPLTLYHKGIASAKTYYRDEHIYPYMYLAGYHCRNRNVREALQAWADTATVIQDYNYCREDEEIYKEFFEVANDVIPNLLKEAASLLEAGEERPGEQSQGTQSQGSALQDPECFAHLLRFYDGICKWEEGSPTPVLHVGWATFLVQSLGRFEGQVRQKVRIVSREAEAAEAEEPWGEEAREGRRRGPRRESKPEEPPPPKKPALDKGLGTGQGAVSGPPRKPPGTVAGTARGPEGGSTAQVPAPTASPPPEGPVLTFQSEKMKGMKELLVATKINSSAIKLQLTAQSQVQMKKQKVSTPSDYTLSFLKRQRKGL
Text: Menin-MLL is a competition assay between human Menin and N-terminal portion of human MLL representing amino acids 4-43 of the protein. The interaction between Menin and MLL peptide was monitored by HTRF employing Terbium labeled anti-His6 antibody directed to the N-terminal His6-tag on recombinant Menin and FITC group covalently attached to the MLL peptide. The N-terminal fragment of MLL, retained in all MLL fusion proteins, is involved in the interactions with Menin, and this protein-protein interaction is critical for the MLL fusion proteins mediated leukemogenic transformations.
For IC50 determination test compounds were prepared as 10 mM DMSO stock solutions. Considering DMSO as the vehicle in the assay system. Lower sub-stocks of 50 μM were prepared from the 10 mM stock solution. To test the compounds in assay, 3.16-fold serial dilutions are made in 100% DMSO. Mid-stock of 50×compounds (50 μM) were serially diluted (3.16 fold) in 100% DMSO in Polypropylene plate. In assay plate 1 micro-litre of the previously prepared compound dilution was stamped. H-FL-Menin diluted to 4 nM in assay buffer (50 mM Tris-HCl, pH 7.4, 50 mM NaCl, freshly prepared 1 mM DTT, 0.01% BSA, 0.005% Triton X-100) was pre-incubated with 8 nM anti-His6-Tb for 30 min at room temperature. FITC-MLL-4-43 was diluted to 2 nM in assay buffer and 25 μL was dispensed into each well of the assay plate followed by addition of 25 μl of pre-incubated H-FL-Menin and anti-His6-Tb mixture. Final concentration H-FL-Menin diluted to 1 nM in assay plate with 2 nM anti-His6-Tb and 1 nM FITC-MLL-4-43. After 1 hr incubation at room temperature, the HTRF signal was measured on the Spark multi-label plate reader. Resulting data were captured as a ratio of RFU520/RFU485×1000. The max values were obtained from 0% inhibition in presence of 2% DMSO and the min. values were 100% inhibition in presence of 1 μM reference compound.

hERG = hERG (Homo sapiens, UniProt Q12809); test: Patch clamp assay (hERG tail currents, whole-cell)
hERG, sequence (Q12809 whole entry): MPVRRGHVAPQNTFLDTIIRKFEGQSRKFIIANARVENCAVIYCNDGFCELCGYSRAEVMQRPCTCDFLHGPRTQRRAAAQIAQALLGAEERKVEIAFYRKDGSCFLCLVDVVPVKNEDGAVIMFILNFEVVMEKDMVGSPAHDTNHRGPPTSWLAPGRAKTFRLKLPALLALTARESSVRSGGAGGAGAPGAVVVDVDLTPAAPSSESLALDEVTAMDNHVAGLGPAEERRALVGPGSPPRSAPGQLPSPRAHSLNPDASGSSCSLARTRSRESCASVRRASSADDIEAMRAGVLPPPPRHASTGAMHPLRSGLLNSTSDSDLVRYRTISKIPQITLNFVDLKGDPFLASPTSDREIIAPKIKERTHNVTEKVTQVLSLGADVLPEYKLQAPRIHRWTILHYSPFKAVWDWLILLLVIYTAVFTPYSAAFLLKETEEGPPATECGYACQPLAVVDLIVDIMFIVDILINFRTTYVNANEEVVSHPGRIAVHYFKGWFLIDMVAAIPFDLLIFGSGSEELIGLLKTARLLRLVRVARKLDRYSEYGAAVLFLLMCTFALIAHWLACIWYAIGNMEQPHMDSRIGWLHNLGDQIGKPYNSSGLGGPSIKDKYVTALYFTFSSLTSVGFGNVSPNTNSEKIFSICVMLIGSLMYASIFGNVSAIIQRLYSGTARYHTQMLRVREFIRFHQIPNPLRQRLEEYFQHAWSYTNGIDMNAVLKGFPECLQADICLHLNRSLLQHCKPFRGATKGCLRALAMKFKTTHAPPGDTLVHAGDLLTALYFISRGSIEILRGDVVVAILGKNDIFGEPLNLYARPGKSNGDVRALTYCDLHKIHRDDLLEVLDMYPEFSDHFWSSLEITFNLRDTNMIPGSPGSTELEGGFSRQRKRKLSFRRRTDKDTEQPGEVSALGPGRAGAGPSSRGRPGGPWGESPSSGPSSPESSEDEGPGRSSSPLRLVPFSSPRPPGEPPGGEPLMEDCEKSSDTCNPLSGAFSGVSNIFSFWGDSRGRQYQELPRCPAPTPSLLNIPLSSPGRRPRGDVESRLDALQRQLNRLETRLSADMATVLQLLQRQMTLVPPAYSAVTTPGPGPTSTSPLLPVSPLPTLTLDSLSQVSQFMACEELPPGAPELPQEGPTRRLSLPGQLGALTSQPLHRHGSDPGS

| Compound | IC50 [1] | hERG % Remaining (hERG; 10 μM compound) | hERG % Remaining (hERG; 30 μM compound) | hERG % Remaining (hERG; 3 μM compound) | hERG % Remaining (hERG; 100 μM compound) | hERG % Remaining (hERG; 1 μM compound) |
| --- | --- | --- | --- | --- | --- | --- |
| CCS(=O)(=O)N[C@@H]1CC[C@@H](CN2CCC3(CC2)CN(c2ncncc2Oc2ccc(F)cc2C(=O)N(CCC#N)C(C)C)C3)OC1 [Example 43, N-(2-Cyanoethyl)-2-((4-(7-(((2S,5R)-5-(ethylsulfonamido)tetrahydro-2H-pyran-2-yl)methyl)-2,7-diazaspiro[3.5]nonan-2-yl)pyrimidin-5-yl)oxy)-5-fluoro-N-isopropylbenzamide] | < 100 nM | +++ (≥66%) | ++ (233% and ≤66%) | – | – | – |
| CCS(=O)(=O)N[C@@H]1CC[C@@H](CN2CCC3(CC2)CN(c2ncncc2Oc2ccc(F)cc2C(=O)N(C(C)C)C2CC2)C3)OC1 [Example 19, N-Cyclopropyl-2-((4-(7-(((2S,5R)-5-(ethylsulfonamido)tetrahydro-2H-pyran-2-yl)methyl)-2,7-diazaspiro[3.5]nonan-2-yl)pyrimidin-5-yl)oxy)-5-fluoro-N-isopropylbenzamide] | < 100 nM | +++ (≥66%) | ++ (233% and ≤66%) | – | – | – |
| CCS(=O)(=O)N[C@@H]1CC[C@@H](CN2CCC3(CC2)CN(c2ncncc2Oc2ccc(F)cc2C(=O)N(C(C)C)[C@H]2CCOC2)C3)OC1 [Example 33, 2-((4-(7-(((2S,5R)-5-(Ethylsulfonamido)tetrahydro-2H-pyran-2-yl)methyl)-2,7-diazaspiro[3.5]nonan-2-yl)pyrimidin-5-yl)oxy)-5-fluoro-N-isopropyl-N-((S)-tetrahydrofuran-3-yl)benzamide] | < 100 nM | +++ (≥66%) | +++ (≥66%) | – | – | – |
| CCN(C(=O)c1cc(F)ccc1Oc1cncnc1N1CC2(CCN(C[C@@H]3CC[C@@H](NS(=O)(=O)N(C)C)CO3)CC2)C1)C(C)C [Example 49, 2-((4-(7-(((2S,5R)-5-((N,N-Dimethylsulfamoyl)amino)tetrahydro-2H-pyran-2-yl)methyl)-2,7-diazaspiro[3.5]nonan-2-yl)pyrimidin-5-yl)oxy)-N-ethyl-5-fluoro-N-isopropylbenzamide] | < 100 nM | +++ (≥66%) | +++ (≥66%) | – | – | – |
| CCN(C(=O)c1cc(F)ccc1Oc1cncnc1N1CC2(CCN(C[C@@H]3CC[C@@H](NS(=O)(=O)C4CCC4)CO3)CC2)C1)C(C)C [Example 6, 2-((4-(7-(((2S,5R)-5-(Cyclobutanesulfonamido)tetrahydro-2H-pyran-2-yl)methyl)-2,7-diazaspiro[3.5]nonan-2-yl)pyrimidin-5-yl)oxy)-N-ethyl-5-fluoro-N-isopropylbenzamide] | < 100 nM | +++ (≥66%) | ++ (233% and ≤66%) | – | – | – |
| CC(C)N(C(=O)c1cc(F)ccc1Oc1cncnc1N1CC2(CCN(C[C@@H]3CC[C@@H](NS(=O)(=O)C(C)C)CO3)CC2)C1)C(C)C [Example 14, 5-Fluoro-N,N-diisopropyl-2-((4-(7-(((2S,5R)-5-((1-methylethyl)sulfonamido)tetrahydro-2H-pyran-2-yl)methyl)-2,7-diazaspiro[3.5]nonan-2-yl)pyrimidin-5-yl)oxy)benzamide] | < 100 nM | +++ (≥66%) | ++ (233% and ≤66%) | +++ (≥66%) | + (<33%) | – |
| CC(C)N(CC(F)F)C(=O)c1cc(F)ccc1Oc1cncnc1N1CC2(CCN(C[C@@H]3CC[C@@H](NS(=O)(=O)C4CC4)CO3)CC2)C1 [Example 47, 2-((4-(7-(((2S,5R)-5-(Cyclopropanesulfonamido)tetrahydro-2H-pyran-2-yl)methyl)-2,7-diazaspiro[3.5]nonan-2-yl)pyrimidin-5-yl)oxy)-N-(2,2-difluoroethyl)-5-fluoro-N-isopropylbenzamide] | < 100 nM | +++ (≥66%) | ++ (233% and ≤66%) | – | – | – |
| CCN(C(=O)c1cc(F)ccc1Oc1cncnc1N1CC2(CCN(C[C@@H]3CC[C@@H](NS(=O)(=O)CC)CO3)CC2)C1)C(C)C [Example 2, N-Ethyl-2-((4-(7-(((2S,5R)-5-(ethylsulfonamido)tetrahydro-2H-pyran-2-yl)methyl)-2,7-diazaspiro[3.5]nonan-2-yl)pyrimidin-5-yl)oxy)-5-fluoro-N-isopropylbenzamide] | < 100 nM | +++ (≥66%) | +++ (≥66%) | – | – | – |
| CCN(C(=O)c1cc(F)ccc1Oc1cncnc1N1CC2(CCN(C[C@@H]3CC[C@@H](NS(=O)(=O)c4ccccc4)CO3)CC2)C1)C(C)C [Example 45, N-Ethyl-5-fluoro-N-isopropyl-2-((4-(7-(((2S,5R)-5-(phenylsulfonamido)tetrahydro-2H-pyran-2-yl)methyl)-2,7-diazaspiro[3.5]nonan-2-yl)pyrimidin-5-yl)oxy)benzamide] | < 100 nM | ++ (233% and ≤66%) | + (<33%) | – | – | – |
| CCS(=O)(=O)N[C@@H]1CC[C@@H](CN2CCC3(CC2)CN(c2ncncc2Oc2ccc(F)cc2C(=O)N(CC(F)F)C(C)C)C3)OC1 [Example 34, N-(2,2-Difluoroethyl)-2-((4-(7-(((2S,5R)-5-(ethylsulfonamido)tetrahydro-2H-pyran-2-yl)methyl)-2,7-diazaspiro[3.5]nonan-2-yl)pyrimidin-5-yl)oxy)-5-fluoro-N-isopropylbenzamide] | < 100 nM | +++ (≥66%) | ++ (233% and ≤66%) | +++ (≥66%) | + (<33%) | +++ (≥66%) |
| CCS(=O)(=O)N[C@@H]1CC[C@@H](CN2CCC3(CC2)CN(c2ncncc2Oc2ccc(F)cc2C(=O)N(C(C)C)C(C)C)C3)OC1 [Example 13, 2-((4-(7-(((2S,5R)-5-(Ethylsulfonamido)tetrahydro-2H-pyran-2-yl)methyl)-2,7-diazaspiro[3.5]nonan-2-yl)pyrimidin-5-yl)oxy)-5-fluoro-N,N-diisopropylbenzamide] | < 100 nM | +++ (≥66%) | ++ (233% and ≤66%) | +++ (≥66%) | ++ (233% and ≤66%) | +++ (≥66%) |
| CC(C)N(C(=O)c1cc(F)ccc1Oc1cncnc1N1CC2(CCN(C[C@@H]3CC[C@@H](NS(=O)(=O)C4CC4)CO3)CC2)C1)C(C)C [Example 15, 2-((4-(7-(((2S,5R)-5-(Cyclopropanesulfonamido)tetrahydro-2H-pyran-2-yl)methyl)-2,7-diazaspiro[3.5]nonan-2-yl)pyrimidin-5-yl)oxy)-5-fluoro-N,N-diisopropylbenzamide] | < 100 nM | +++ (≥66%) | ++ (233% and ≤66%) | +++ (≥66%) | + (<33%) | – |
| CC(C)N(C(=O)c1cc(F)ccc1Oc1cncnc1N1CC2(CCN(C[C@@H]3CC[C@@H](NS(C)(=O)=O)CO3)CC2)C1)C(C)C [Example 12, 5-Fluoro-N,N-diisopropyl-2-((4-(7-(((2S,5R)-5-(methylsulfonamido)tetrahydro-2H-pyran-2-yl)methyl)-2,7-diazaspiro[3.5]nonan-2-yl)pyrimidin-5-yl)oxy)benzamide] | < 100 nM | +++ (≥66%) | +++ (≥66%) | +++ (≥66%) | ++ (233% and ≤66%) | +++ (≥66%) |
